# Earlier results in patent US7074826B2, “R-NSAID esters and their use” (Encore Pharmaceuticals, Inc., priority 2002, dated 2006).
# Legend:
# [1] = system: Alzheimer's dementia; conditions: limited clinical trial
# [2] = system: cystic fibrosis patients
# [3] = system: colon cancer patients
smiles,measurement,setting,value
COc1ccc2c(c1)c(CC(=O)O)c(C)n2C(=O)c1ccc(Cl)cc1 [indomethacin],progression of Alzheimer's dementia,[1],retardation in the progression of Alzheimer's dementia
"CC(C)Cc1ccc(C(C)C(=O)O)cc1 (racemic) [racemic ibuprofen, ibuprofen]",adverse effects of high doses,[2]; high doses employed in the Konstan study,conjunctivitis and epistaxis
same,progression of the lung disease,"[2]; high doses, cystic fibrosis patients, four-year period",slows progression of the lung disease
c1ccc([C@H]2CN3CCSC3=N2)cc1 [levamisole],survival rate among colon cancer patients,[3]; added to 5-fluorouracil,improved survival rate
O=c1[nH]cc(F)c(=O)[nH]1 [5-fluorouracil],survival among colon cancer patients,[3]; administered alone,No improvement in survival
